# In US10759810B2 (AO “TATKHIMFARMPREPARATY”, priority 2016, dated 2020):
# Tests used:
# [1] = test system: Bacillus subtilis 168 (museum strain); assay: MIC, serial dilutions in Mueller-Hinton broth; assay type: cell-based; settings: inoculum 10^7 CFU/ml, gram-positive; for MIC: Bacillus subtilis, read-out: MIC, B. subtilis
# Procedure: (§1) Measurement of antibacterial activity was carried out on the strains of Staphylococcus aureus ATCC 29213 (museum strain), Staphylococcus epidermidis (clinical isolate), Micrococcus luteus (clinical isolate), Bacillus subtilis 168 (museum strain), Escherichia coli ATCC 25922 (museum strain), Salmonella typhimurium TA100 (museum strain), Pseudomonas aeruginosa ATCC 27853 (museum strain). A comparative assessment of the spectrum of antibacterial action on reference strains and clinical isolates of gram-positive microorganisms was carried out using a micromethod for determining the minimum inhibitory concentration (MIC) using serial dilutions in Mueller-Hinton broth using 96-well sterile plates.
# (§2) The first lowest concentration of the antibiotic (from a series of successive dilutions), where bacterial growth is not visually determined, is considered to be the minimum inhibitory concentration (MIC).
# (§3) For the preparation of inoculum (infectious material used for artificial contamination), intended for the study of antibacterial activity, was used a pure daily culture of bacteria grown on a dense nutrient medium (agar LB medium). In a sterile isotonic solution of sodium chloride, a suspension of microorganisms was prepared, adjusting the inoculum density to 0.5 according to the McFarland standard (1.5·10^8 CFU/ml). Then, the resulting inoculum was diluted to a concentration of 10^7 CFU/ml with LB-broth. The inoculum was used for 15 minutes after preparation; the purity of the bacterial strains was monitored before each experiment.
# (§4) 100 μl of Muller-Hinton broth was added to the wells of each plate; the test base was introduced into the first well at a concentration of 128 μg/ml in a volume of 100 μl and its concentration was adjusted to 0.25 μg/ml by consecutive two-fold dilution. […] Each preparation in the experiment was titrated three times. […] In addition, the purity of nutrient media and solvents was monitored. The plates were incubated in a thermostat at […] for 24 hours.
# (§5) The growth of cultures was assessed visually, comparing the growth of microorganisms in the presence of test compounds with the growth of culture without them.
# [2] = test system: Escherichia coli ATCC 25922 (museum strain); assay: MIC, serial dilutions in Mueller-Hinton broth; assay type: cell-based; settings: inoculum 10^7 CFU/ml, gram-negative; for MIC: Escherichia coli, ATCC25922, read-out: MIC, E. coli
# Procedure: as §1, §2, §3, §4, §5
# [3] = test system: Salmonella typhimurium TA100 (museum strain); assay: MIC, serial dilutions in Mueller-Hinton broth; assay type: cell-based; settings: inoculum 10^7 CFU/ml, gram-negative; for MIC: Salmonella enterica, TYPHIMURIUM, read-out: MIC, S. typhimurium
# Procedure: as §1, §2, §3, §4, §5
# [4] = test system: Micrococcus luteus (clinical isolate); assay: MIC, serial dilutions in Mueller-Hinton broth; assay type: cell-based; settings: inoculum 10^7 CFU/ml, gram-positive; for MIC: Micrococcus luteus, read-out: MIC, M. luteus
# Procedure: as §1, §2, §3, §4, §5
# [5] = test system: Pseudomonas aeruginosa ATCC 27853 (museum strain); assay: MIC, serial dilutions in Mueller-Hinton broth; assay type: cell-based; settings: inoculum 10^7 CFU/ml, gram-negative; for MIC: Pseudomonas aeruginosa, ATCC27853, read-out: MIC, P. aerugenosa
# Procedure: as §1, §2, §3, §4, §5
# [6] = test system: Staphylococcus aureus ATCC 29213 (museum strain); assay: MIC, serial dilutions in Mueller-Hinton broth; assay type: cell-based; settings: inoculum 10^7 CFU/ml, gram-positive; for MIC: Staphylococcus aureus, ATCC29213, read-out: MIC, S. aureus
# Procedure: as §1, §2, §3, §4, §5
# [7] = test system: Staphylococcus epidermidis (clinical isolate); assay: MIC, serial dilutions in Mueller-Hinton broth; assay type: cell-based; settings: inoculum 10^7 CFU/ml, gram-positive; for MIC: Staphylococcus epidermidis, read-out: MIC, S. epidermidis
# Procedure: as §1, §2, §3, §4, §5
# S. aureus MRSA 1143 = assay: MIC on clinical strain; assay type: cell-based, Staphylococcus aureus; settings: inoculum 10^7 CFU/ml
# Procedure: as §1, §2, §3, §4, §5
# S. aureus MRSA 2020 = assay: MIC on clinical strain; assay type: cell-based, Staphylococcus aureus; settings: inoculum 10^7 CFU/ml
# Procedure: as §1, §2, §3, §4, §5
# S. aureus MRSA 981 = assay: MIC on clinical strain; assay type: cell-based, Staphylococcus aureus; settings: inoculum 10^7 CFU/ml
# Procedure: as §1, §2, §3, §4, §5
# S. aureus MRSA 1168 = assay: MIC on clinical strain; assay type: cell-based, Staphylococcus aureus; settings: inoculum 10^7 CFU/ml
# Procedure: as §1, §2, §3, §4, §5
# S. aureus MRSA 1163 = assay: MIC on clinical strain; assay type: cell-based, Staphylococcus aureus; settings: inoculum 10^7 CFU/ml
# Procedure: as §1, §2, §3, §4, §5
# S. aureus MRSA 983 = assay: MIC on clinical strain; assay type: cell-based, Staphylococcus aureus; settings: inoculum 10^7 CFU/ml
# Procedure: as §1, §2, §3, §4, §5
# S. aureus MRSA 1065 = assay: MIC on clinical strain; assay type: cell-based, Staphylococcus aureus; settings: inoculum 10^7 CFU/ml
# Procedure: as §1, §2, §3, §4, §5
# S. aureus MRSA 1173 = assay: MIC on clinical strain; assay type: cell-based, Staphylococcus aureus; settings: inoculum 10^7 CFU/ml
# Procedure: as §1, §2, §3, §4, §5
# S. aureus MRSA 1053 = assay: MIC on clinical strain; assay type: cell-based, Staphylococcus aureus; settings: inoculum 10^7 CFU/ml
# Procedure: as §1, §2, §3, §4, §5
# S. aureus MRSA 1130 = assay: MIC on clinical strain; assay type: cell-based, Staphylococcus aureus; settings: inoculum 10^7 CFU/ml
# Procedure: as §1, §2, §3, §4, §5
# S. aureus MRSA 967 = assay: MIC on clinical strain; assay type: cell-based, Staphylococcus aureus; settings: inoculum 10^7 CFU/ml
# Procedure: as §1, §2, §3, §4, §5
# S. aureus MRSA 1131 = assay: MIC on clinical strain; assay type: cell-based, Staphylococcus aureus; settings: inoculum 10^7 CFU/ml
# Procedure: as §1, §2, §3, §4, §5
compound,measurement,setting,value
"Cc1ncc(CN2CCN(c3cc4c(cc3F)c(=O)c(C(=O)O)cn4C3CC3)CC2)c2c1OC(C)OC2 (stereo not shown) [Compound I-6, 1-cyclopropyl-6-fluoro-7-(4-((2,8-dimethyl-4H-[1,3]dioxino-[4,5-c]pyridine-5-yl)methyl)piperazinyl)-4-oxo-1,4-dihydroquinolin-3-carboxylic acid]","MIC, B. subtilis",[1],<2 µg/mL
same,"MIC, E. coli",[2],>64 µg/mL
same,"MIC, S. typhimurium",[3],4 µg/mL
same,"MIC, M. luteus",[4],8 µg/mL
same,"MIC, P. aerugenosa",[5],>64 µg/mL
same,"MIC, S. aureus",[6],8 µg/mL
same,"MIC, S. epidermidis",[7],8 µg/mL
"COc1c(N2C[C@@H]3CCCN[C@@H]3C2)c(F)cc2c(=O)c(C(=O)O)cn(C3CC3)c12 [Moxifloxacin, moxifloxacin, reference compound]",MIC,[1],< 2 µg/mL
same,MIC,[2],2 µg/mL
same,MIC,[3],0.5 µg/mL
same,MIC,[4],4 µg/mL
same,MIC,[5],8 µg/mL
same,MIC,[6],1 µg/mL
same,MIC,[7],4 µg/mL
"Cc1ncc(CSCCN2CCN(c3cc4c(cc3F)c(=O)c(C(=O)O)cn4C3CC3)CC2)c2c1OC(C)(C)OC2 [Compound I-4, 1-cyclopropyl-6-fluoro-7-(4-(2-(((2,2,8-trimethyl-4H-[1,3]dioxino-[4,5-c]pyridine-5-yl)methyl)sulfanyl)ethyl)piperazinyl)-4-oxo-1,4-dihydroquinolin-3-carboxylic acid]","MIC, B. subtilis",[1],<2 µg/mL
same,"MIC, E. coli",[2],64 µg/mL
same,"MIC, S. typhimurium",[3],4 µg/mL
same,"MIC, M. luteus",[4],8 µg/mL
same,"MIC, P. aerugenosa",[5],>64 µg/mL
same,"MIC, S. aureus",[6],16 µg/mL
same,"MIC, S. epidermidis",[7],32 µg/mL
"Cc1ncc(CN2CCN(c3cc4c(cc3F)c(=O)c(C(=O)O)cn4C3CC3)CC2)c2c1OCOC2 [Compound I-12, 1-cyclopropyl-6-fluoro-7-(4-((8-methyl-4H-[1,3]dioxino [4,5-c]pyridine-5-yl)methyl)piperazine-1-yl)-4-oxo-1,4-dihydroquinolin-3-carboxylic acid]",MIC,[1],< 2 µg/mL
same,MIC,[2],8 µg/mL
same,MIC,[3],0.5 µg/mL
same,MIC,[4],16 µg/mL
same,MIC,[5],32 µg/mL
same,MIC,[6],1 µg/mL
same,MIC,[7],0.5 µg/mL
"CCCCCCCCC1OCc2c(CN3CCN(c4cc5c(cc4F)c(=O)c(C(=O)O)cn5C4CC4)CC3)cnc(C)c2O1 (stereo not shown) [Compound I-8, 1-cyclopropyl-6-fluoro-7-(4-((8-methyl-2-octyl-4H-[1,3]dioxino-[4,5-c]pyridine-5-yl)methyl)piperazinyl)-4-oxo-1,4-dihydroquinolin-3-carboxylic acid]","MIC, B. subtilis",[1],<2 µg/mL
same,"MIC, E. coli",[2],>64 µg/mL
same,"MIC, S. typhimurium",[3],4 µg/mL
same,"MIC, M. luteus",[4],64 µg/mL
same,"MIC, P. aerugenosa",[5],>64 µg/mL
same,"MIC, S. aureus",[6],32 µg/mL
same,"MIC, S. epidermidis",[7],64 µg/mL
"Cc1nc(CN2CCN(c3cc4c(cc3F)c(=O)c(C(=O)O)cn4C3CC3)CC2)c(CO)c2c1OC(C)(C)OC2 [Compound I-10, 1-cyclopropyl-6-fluoro-7-(4-((5-hydroxymethyl-2,2,8-trimethyl-4H-[1,3]dioxino [4,5-c]pyridine-6-yl)methyl)piperazinyl)-4-oxo-1,4-dihydroquinolin-3-carboxylic acid]","MIC, B. subtilis",[1],<2 µg/mL
same,"MIC, E. coli",[2],64 µg/mL
same,"MIC, S. typhimurium",[3],4 µg/mL
same,"MIC, M. luteus",[4],8 µg/mL
same,"MIC, P. aerugenosa",[5],>64 µg/mL
same,"MIC, S. aureus",[6],8 µg/mL
same,"MIC, S. epidermidis",[7],8 µg/mL
"Cc1ncc(CN2CCN(c3cc4c(cc3F)c(=O)c(C(=O)O)cn4C3CC3)CC2)c2c1OC(C)(C)OC2 [Compound I-1, 1-cyclopropyl-6-fluoro-7-(4-((2,2,8-trimethyl-4H-[1,3]dioxino-[4,5-c]pyridine-5-yl)methyl)piperazinyl)-4-oxo-1,4-dihydroquinolin-3-carboxylic acid]","MIC, B. subtilis",[1],<2 µg/mL
same,"MIC, E. coli",[2],64 µg/mL
same,"MIC, S. typhimurium",[3],4 µg/mL
same,"MIC, M. luteus",[4],32 µg/mL
same,"MIC, P. aerugenosa",[5],>64 µg/mL
same,"MIC, S. aureus",[6],32 µg/mL
same,"MIC, S. epidermidis",[7],16 µg/mL
"Cc1ncc(CSCCN2CCN(c3cc4c(cc3F)c(=O)c(C(=O)O)cn4C3CC3)CC2)c(CO)c1O [Compound I-5, 1-cyclopropyl-6-fluoro-7-(4-(2-(((5-hydroxy-4-hydroxymethyl-6-methylpyridine-3-yl)methyl)sulfanyl)ethyl)piperazinyl)-4-oxo-1,4-dihydroquinolin-3-carboxylic acid]","MIC, B. subtilis",[1],<2 µg/mL
same,"MIC, E. coli",[2],8 µg/mL
same,"MIC, S. typhimurium",[3],4 µg/mL
same,"MIC, M. luteus",[4],8 µg/mL
same,"MIC, P. aerugenosa",[5],32 µg/mL
same,"MIC, S. aureus",[6],8 µg/mL
same,"MIC, S. epidermidis",[7],8 µg/mL
"CO/N=C(\C(=O)N[C@@H]1C(=O)N2C(C(=O)O)=C(CSc3nc(=O)c(O)nn3C)CS[C@H]12)c1csc(N)n1 [Ceftriaxon, ceftriaxone]","The value of the MIC, S. aureus MRSA 1143",S. aureus MRSA 1143,>64 µg/mL
same,"The value of the MIC, S. aureus MRSA 2020",S. aureus MRSA 2020,2 µg/mL
same,"The value of the MIC, S. aureus MRSA 981",S. aureus MRSA 981,>64 µg/mL
same,"The value of the MIC, S. aureus MRSA 1168",S. aureus MRSA 1168,0.5 µg/mL
same,"The value of the MIC, S. aureus MRSA 1163",S. aureus MRSA 1163,>64 µg/mL
same,"The value of the MIC, S. aureus MRSA 983",S. aureus MRSA 983,>64 µg/mL
same,"The value of the MIC, S. aureus MRSA 1065",S. aureus MRSA 1065,>64 µg/mL
same,"The value of the MIC, S. aureus MRSA 1173",S. aureus MRSA 1173,>64 µg/mL
same,"The value of the MIC, S. aureus MRSA 1053",S. aureus MRSA 1053,>64 µg/mL
same,"The value of the MIC, S. aureus MRSA 1130",S. aureus MRSA 1130,>64 µg/mL
same,"The value of the MIC, S. aureus MRSA 967",S. aureus MRSA 967,>64 µg/mL
same,"The value of the MIC, S. aureus MRSA 1131",S. aureus MRSA 1131,>64 µg/mL
"CCCC1OCc2c(CN3CCN(c4cc5c(cc4F)c(=O)c(C(=O)O)cn5C4CC4)CC3)cnc(C)c2O1 (stereo not shown) [Compound I-7, 1-cyclopropyl-6-fluoro-7-(4-((8-methyl-2-propyl-4H-[1,3]dioxino-[4,5-c]pyridine-5-yl)methyl)piperazinyl)-4-oxo-1,4-dihydroquinolin-3-carboxylic acid]","MIC, B. subtilis",[1],<2 µg/mL
same,"MIC, E. coli",[2],>64 µg/mL
same,"MIC, S. typhimurium",[3],4 µg/mL
same,"MIC, M. luteus",[4],64 µg/mL
same,"MIC, P. aerugenosa",[5],>64 µg/mL
same,"MIC, S. aureus",[6],64 µg/mL
same,"MIC, S. epidermidis",[7],64 µg/mL
"Cc1nc(CN2CCN(c3cc4c(cc3F)c(=O)c(C(=O)O)cn4C3CC3)CC2)c(CO)c(CO)c1O [Compound I-11, 1-cyclopropyl-6-fluoro-7-(4-((5-hydroxy-3,4-bis(hydroxymethyl)-6-methylpyridine-2-yl)methyl)piperazinyl)-4-oxo-1,4-dihydroquinolin-3-carboxylic acid]","MIC, B. subtilis",[1],<2 µg/mL
same,"MIC, E. coli",[2],64 µg/mL
same,"MIC, S. typhimurium",[3],4 µg/mL
same,"MIC, M. luteus",[4],32 µg/mL
same,"MIC, P. aerugenosa",[5],>64 µg/mL
same,"MIC, S. aureus",[6],64 µg/mL
same,"MIC, S. epidermidis",[7],32 µg/mL
